# According to publication PMC5520944 (Cell Death & Disease, 2017):
# Where a name gives a salt, the structure may show the parent alone.
# Tested on: L929sAhFas
# Assay: cells
# Parameters: high-content necroptosis screen, percentage PI-positive nuclei as percent of DMSO plus stimulus control
# Conditions: read-out: cell death TNF (POC)
# Source text: To identify novel inhibitors or regulators of necroptosis, 500 small compounds from libraries targeting autophagy, kinases, phosphatases, proteases and redox balance were screened for their ability to block TNF-induced necroptosis in murine L929sAhFas cells. Three conditions were used to induce necroptosis in L929 cells: TNF alone, TNF+TAK1 inhibitor (TAK1i) and TNF+zVAD-fmk, a pan-caspase inhibitor. Inhibition of TAK1 or caspases sensitizes to necroptosis.[13], [32] Necroptosis, measured as the percentage of PI-positive nuclei normalized to the plate-specific DMSO control, was determined for each compound (Supplementary Figure 1A). […] After compound treatment, L929sAhFas (a) or L929 (b) cells were stimulated with mTNF (T), mTNF+Tak1i (TiT) or mTNF+zVAD (zVT) (Supplementary Figure 1A and B). (a) Cell death percentage (% PI-positive nuclei) or cell loss was calculated as percent of control (DMSO+stimulus). […] (b) Cell loss (luminescence-based readout for ATP) was calculated as percent of control (DMSO+stimulus). […] In stimulated conditions, % PI-positive nuclei was determined as % of DMSO control. Data represent mean values±S.E.M. of two independent experiments. Cells were stained with Hoechst and PI and percentage PI-positive nuclei was determined using high-content image analysis (BD pathway Bioimager). (d) L929sAhFas cells were treated with Sorafenib (concentration as indicated) for 24 h. Then, stimulus was removed, 50 cells/condition seeded and colonies counted with crystal violet staining after 10 days incubation. […] Schemes of workflow screening assays in L929 cell lines. (A) Scheme of the workflow of a high-content screening assay on L929sAhFas cells using mTNF (T) and mTNF+Tak1i ((5Z)-7-Oxozeaenol) (TiT) to induce necroptotic cell death. Nec-1 and zVAD-fmk were used as protective and sensitizing benchmarks, respectively, on all plates. (B) Scheme of the workflow of a CellTiter-Glo luminescent cell viability screening assay on L929 cells using mTNF+zVAD (zVT) to induce necroptotic cell death. Supplementary Figure S2. Z’ calculation for cell death screening assays in L929 cells. (A) Z’ calculation for cell death screening assay (Fig. 1A) in mTNF-stimulated L929sAhFas cells. (B) Z’ calculation for cell death screening assay (Fig. 1A) in L929sAhFas cells stimulated with mTNF + Taki.
row,Compound,activity at 10 µM
1,Oc1ccc(-c2nc(-c3ccc(F)cc3)c(-c3ccncc3)[nH]2)cc1 [SB-202190],110%
2,O=c1c(O)c(-c2ccc(O)c(O)c2)oc2cc(O)cc(O)c12 [Quercetin·2H2O],90.4%
3,c1ccc2c(-c3ccncc3)c[nH]c2c1 [Rockout],106%
4,Cn1cnc(N)c2ncnc1-2 [3-Methyladenine],88.7%
5,Cc1cc2ncc(-c3ccccc3)nc2cc1C [TYRPHOSTIN AG 1295],93.6%
6,O=C1Cc2c([nH]c3ccc(Br)cc23)-c2ccccc2N1 [Kenpaullone],162%
7,Cc1ccc(-c2nn(C(C)(C)C)c3ncnc(N)c23)cc1 [PP1],114%
8,N#C/C(=C\c1ccc(O)c(O)c1)C(N)=O [TYRPHOSTIN 46],97.8%
9,C=CC(=O)c1ccc2ccccc2c1 [ZM 449829],87.3%
10,Cc1ccc(NC(=O)c2ccc(CN3CCN(C)CC3)cc2)cc1Nc1nccc(-c2cccnc2)n1 [Imatinib mesylate],63.9%
11,N#C/C(=C\c1ccc(O)c(O)c1)C(N)=S [TYRPHOSTIN 47],93%
12,O=c1c(-c2ccc(O)cc2)coc2cc(O)cc(O)c12 [Genistein],86.1%
13,COC[C@H]1OC(=O)c2coc3c2[C@@]1(C)C1=C(C3=O)[C@@H]2CCC(=O)[C@@]2(C)C[C@H]1OC(C)=O [Wortmannin],99.4%
14,Nc1ncnc2c1c(I)cn2[C@@H]1O[C@H](CO)[C@@H](O)[C@H]1O [5-Iodotubercidin],229%
15,N#CC(C#N)=Cc1ccc([N+](=O)[O-])c(O)c1 [AG-126],94.7%
16,O=c1cc(N2CCOCC2)oc2c(-c3ccccc3)cccc12 [LY 294002],85.7%
17,N#CC(C#N)=C(N)/C(C#N)=C/c1cc(O)c(O)c(O)c1 [TYRPHOSTIN 51],116%
18,CC(C)(C)n1nc(-c2ccc(Cl)cc2)c2c(N)ncnc21 [PP2],127%
19,C/C(O)=C(\C#N)C(=O)Nc1cc(Br)ccc1Br [LFM-A13],93.5%
20,N#CC(=C(/N)Sc1ccccc1N)/C(C#N)=C(\N)Sc1ccccc1N [U-0126],69.7%
21,CC(C)c1cc(/C=C(\C#N)C(=O)NCCCc2ccccc2)cc(C(C)C)c1O [SU1498],91.7%
22,O=C(O)c1cc(N(Cc2ccccc2O)Cc2cc(O)ccc2O)ccc1O [Lavendustin A],85.9%
23,O=C1Nc2ccccc2/C1=C1/Nc2ccccc2C1=O [Indirubin],91.7%

# Same assay, conditions: read-out: cell death TNF/Taki (POC)
row,Compound,activity at 10 µM
1,Oc1ccc(-c2nc(-c3ccc(F)cc3)c(-c3ccncc3)[nH]2)cc1 [SB-202190],96.3%
2,O=c1c(O)c(-c2ccc(O)c(O)c2)oc2cc(O)cc(O)c12 [Quercetin·2H2O],98.5%
3,c1ccc2c(-c3ccncc3)c[nH]c2c1 [Rockout],99%
4,Cn1cnc(N)c2ncnc1-2 [3-Methyladenine],102%
5,Cc1cc2ncc(-c3ccccc3)nc2cc1C [TYRPHOSTIN AG 1295],100%
6,O=C1Cc2c([nH]c3ccc(Br)cc23)-c2ccccc2N1 [Kenpaullone],99.9%
7,Cc1ccc(-c2nn(C(C)(C)C)c3ncnc(N)c23)cc1 [PP1],100%
8,N#C/C(=C\c1ccc(O)c(O)c1)C(N)=O [TYRPHOSTIN 46],99.8%
9,C=CC(=O)c1ccc2ccccc2c1 [ZM 449829],99.6%
10,Cc1ccc(NC(=O)c2ccc(CN3CCN(C)CC3)cc2)cc1Nc1nccc(-c2cccnc2)n1 [Imatinib mesylate],96.1%
11,N#C/C(=C\c1ccc(O)c(O)c1)C(N)=S [TYRPHOSTIN 47],100%
12,O=c1c(-c2ccc(O)cc2)coc2cc(O)cc(O)c12 [Genistein],99.3%
13,COC[C@H]1OC(=O)c2coc3c2[C@@]1(C)C1=C(C3=O)[C@@H]2CCC(=O)[C@@]2(C)C[C@H]1OC(C)=O [Wortmannin],101%
14,Nc1ncnc2c1c(I)cn2[C@@H]1O[C@H](CO)[C@@H](O)[C@H]1O [5-Iodotubercidin],101%
15,N#CC(C#N)=Cc1ccc([N+](=O)[O-])c(O)c1 [AG-126],99.4%
16,O=c1cc(N2CCOCC2)oc2c(-c3ccccc3)cccc12 [LY 294002],99.2%
17,N#CC(C#N)=C(N)/C(C#N)=C/c1cc(O)c(O)c(O)c1 [TYRPHOSTIN 51],101%
18,CC(C)(C)n1nc(-c2ccc(Cl)cc2)c2c(N)ncnc21 [PP2],100%
19,C/C(O)=C(\C#N)C(=O)Nc1cc(Br)ccc1Br [LFM-A13],100%
20,N#CC(=C(/N)Sc1ccccc1N)/C(C#N)=C(\N)Sc1ccccc1N [U-0126],98.7%
21,CC(C)c1cc(/C=C(\C#N)C(=O)NCCCc2ccccc2)cc(C(C)C)c1O [SU1498],99.2%
22,O=C(O)c1cc(N(Cc2ccccc2O)Cc2cc(O)ccc2O)ccc1O [Lavendustin A],100%
23,O=C1Nc2ccccc2/C1=C1/Nc2ccccc2C1=O [Indirubin],99.1%
